# In US20100003724A1, “CHEMICALLY MODIFIED NUCLEOSIDE 5'-TRIPHOSPHATES FOR THERMALLY INITIATED AMPLIFICATION OF NUCLEIC ACID” (priority 2008, published 2010):
# Where two headings read alike, the source gives them in different places.
# Key:
# [1] = for Concentration of unmodified dTTP: 250 μM solution of 3′-substituted dTTP, 95° C., PCR buffer (pH 8.4 at 25° C.); for cleavage of the 3′-ester group: within 60 minutes of incubation
# Method: Conversion of the 3′-substituted dTTP to the corresponding unmodified dTTP was investigated in PCR buffer (pH 8.4 at 25° C., Table 1) at 20° C. and 95° C. The reactions were monitored by analysis of the incubated mixtures by reverse-phase and anion-exchange HPLC.
# [2] = biological target: Klenow (exo-) DNA polymerase (Escherichia coli, UniProt P00582, D355A/E357A); conditions: for substrate for Klenow (exo-) DNA polymerase (incorporation and extension): after a 40 minute preheating step at 95° C.; for substrate for Klenow (exo-) DNA polymerase (incorporation into the primer): room temperature, unheated 3′-substituted dTTP
# Sequence of Klenow (exo-) DNA polymerase (P00582 324-928 D355A/E357A): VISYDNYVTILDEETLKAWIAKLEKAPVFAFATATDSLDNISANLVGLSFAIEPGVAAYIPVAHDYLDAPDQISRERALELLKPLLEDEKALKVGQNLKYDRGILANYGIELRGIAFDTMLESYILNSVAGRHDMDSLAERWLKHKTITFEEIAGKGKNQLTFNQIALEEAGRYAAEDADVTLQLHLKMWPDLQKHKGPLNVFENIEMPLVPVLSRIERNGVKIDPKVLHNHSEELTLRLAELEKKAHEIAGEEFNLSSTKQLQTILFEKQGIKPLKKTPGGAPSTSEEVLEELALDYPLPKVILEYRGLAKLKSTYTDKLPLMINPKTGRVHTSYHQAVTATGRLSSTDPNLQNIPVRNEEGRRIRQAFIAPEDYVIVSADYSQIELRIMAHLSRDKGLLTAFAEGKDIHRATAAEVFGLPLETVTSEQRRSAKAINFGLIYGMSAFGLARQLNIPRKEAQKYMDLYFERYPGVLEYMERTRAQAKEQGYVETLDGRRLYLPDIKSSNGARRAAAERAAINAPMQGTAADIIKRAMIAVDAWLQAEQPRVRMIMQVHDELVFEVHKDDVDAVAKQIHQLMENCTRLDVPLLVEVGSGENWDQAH
# Method: The ability of Klenow (exo-) DNA polymerase to perform room temperature primer extensions of a pre-annealed primer/template duplex was evaluated in 50 mM NaCl, 10 mM Tris-HCl (pH 7.9), 10 mM MgCl, 1 mM DTT, 0.5 units of enzyme, 0.2 mM dATP and in the presence of one of the following 3′-substituted dTTP derivatives: 3′-THP-dTTP, 3′-MTHP-dTTP or 3′-THF-dTTP (FIG. 4 (top)).
# [3] = test system: Lambda DNA and HIV-1 DNA systems; conditions: one 3′-substituted dTTP derivative in place of natural dTTP; compared to all four natural dNTPs
# Method: For the Lambda DNA and HIV-1 DNA systems (Table 2), PCR conditions were used where non-specific amplification products, including primer dimers, readily formed in the presence of template. These conditions employed 1 μM concentration of both the forward and reverse oligonucleotide primers, 10 HIV-1 or 10,000 Lambda DNA copies of template, 0.2 mM each of dNTP or 3′-substituted dNTP, and 2.0 mM MgCl2. Each mixture contained 50 ng of Human Genomic DNA. The thermal cycling parameters were as follows: 95° C. for 2 min; 40 cycles of [95° C. for 40 sec; 56° C. for 30 sec; 72° C. for 2 min]; 72° C. for 7 min.
# [4] = test system: HIV-1 system (365 bp HIV-1 fragment); assay: Hot Start PCR with 3′-THF-dNTPs substituted for natural dNTPs; assay type: biochemical; conditions: 3′-THF dNTP substituted for its natural dNTP
# Method: Each mixture contained 50 ng of Human Genomic DNA.
# All permutations of substitution of one, two, three or four 3′-THF-dNTPs (from the group of 3′-THF-dATP, […], 3′-THF-dCTP and 3′-THF-dTTP) were examined for their natural counterpart and the resultant effect on reducing primer dimer formation. […] A combined substitution of two or more 3′-THF derivatives of dNTPs for natural dNTPs further improved PCR performance. Thus, combination of 3′-THF-dTTP and 3′-THF-dATP, as a replacement for dTTP and dATP, nearly completely eliminated non-specific amplification products in the HIV-1 system (approximately 10-fold improvement, FIG. 7). Overall, there was a strong correlation between using more than one type of 3′-substituted dNTP in a PCR mixture with an efficiency and specificity of amplicon production.
# [5] = biological target: Taq DNA polymerase (Thermus aquaticus, UniProt P19821); assay: Primer extension with Taq DNA polymerase at room temperature; conditions: 25 units of enzyme
# Sequence of Taq DNA polymerase (P19821 whole entry): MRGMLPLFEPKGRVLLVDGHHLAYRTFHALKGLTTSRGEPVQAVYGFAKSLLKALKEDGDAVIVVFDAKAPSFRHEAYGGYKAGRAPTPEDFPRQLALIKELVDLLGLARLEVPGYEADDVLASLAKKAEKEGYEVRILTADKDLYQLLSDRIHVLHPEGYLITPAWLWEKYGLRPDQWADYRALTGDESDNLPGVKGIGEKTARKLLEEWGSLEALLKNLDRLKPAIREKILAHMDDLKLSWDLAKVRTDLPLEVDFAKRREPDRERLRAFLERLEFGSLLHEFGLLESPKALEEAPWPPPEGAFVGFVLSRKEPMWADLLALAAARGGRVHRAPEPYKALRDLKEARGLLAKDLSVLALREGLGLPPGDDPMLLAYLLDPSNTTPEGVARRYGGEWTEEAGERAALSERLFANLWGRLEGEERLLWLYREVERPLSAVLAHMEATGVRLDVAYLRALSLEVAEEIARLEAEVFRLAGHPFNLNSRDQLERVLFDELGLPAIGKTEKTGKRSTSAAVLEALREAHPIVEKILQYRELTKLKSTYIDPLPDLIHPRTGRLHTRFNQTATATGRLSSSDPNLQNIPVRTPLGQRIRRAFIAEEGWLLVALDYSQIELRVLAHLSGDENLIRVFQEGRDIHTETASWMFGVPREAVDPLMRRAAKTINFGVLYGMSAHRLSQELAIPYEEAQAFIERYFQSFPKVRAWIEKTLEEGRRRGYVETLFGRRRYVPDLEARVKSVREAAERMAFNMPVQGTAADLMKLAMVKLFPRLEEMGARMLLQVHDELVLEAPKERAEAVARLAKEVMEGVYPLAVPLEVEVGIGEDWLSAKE
# From the text: The extension experiments were repeated with Taq DNA polymerase at room temperature utilizing 25 units of enzyme and either 3′-THF-dTTP or 3′-Ac-dTTP.
SMILES,Concentration of unmodified dTTP ([1]; 2 min),Concentration of unmodified dTTP ([1]; 10 min),Concentration of unmodified dTTP ([1]; 20 min),"cleavage of the 3′-ester group ([1]; PCR buffer, room temperature)",substrate for Klenow (exo-) DNA polymerase (incorporation and extension) [2],substrate for Klenow (exo-) DNA polymerase (incorporation into the primer) [2],overall PCR performance [3],"PCR performance (non-specific amplification products, specific amplicon formation) [4]",substrate for Taq DNA polymerase [5],"cleavage of the 3′-acetyl group ([1]; PCR buffer, room temperature, after 24 hours of incubation)"
COCC(=O)O[C@H]1C[C@H](n2cc(C)c(=O)[nH]c2=O)O[C@@H]1COP(=O)(O)OP(=O)(O)OP(=O)(O)O [3′-O[CH3OAc]],35 µM,140 µM,195 µM,4%,,,,,,
Cc1cn([C@H]2C[C@H](OC(=O)COc3ccccc3)[C@@H](COP(=O)(O)OP(=O)(O)OP(=O)(O)O)O2)c(=O)[nH]c1=O [3′-O[PhOAc]],50 µM,170 µM,209 µM,10%,,,,,,
COC1(O[C@H]2C[C@H](n3cc(C)c(=O)[nH]c3=O)O[C@@H]2COP(=O)(O)OP(=O)(O)OP(=O)(O)O)CCOCC1 [3′-MTHP-dTTP],2 µM,21 µM,47 µM,,became substrates for enzyme,not substrates,,,,
Cc1cn([C@H]2C[C@H](OC3CCCCO3)[C@@H](COP(=O)(O)OP(=O)(O)OP(=O)(O)O)O2)c(=O)[nH]c1=O (stereo partly drawn) [3′-THP-dTTP],≦1 μM,10 µM,16 µM,,became substrates for enzyme,not substrates,not as good as with natural dTTP,,,
Nc1ncnc2c1ncn2C1CC(OC2CCCO2)C(COP(=O)(O)OP(=O)(O)OP(=O)(O)O)O1 (stereo not drawn) [3′-THF-dATP],,,,,,,,strong reduction of both non-specific amplification products and an increase of specific amplicon formation,,
"CC(=O)OC1CC(n2cc(C)c(=O)[nH]c2=O)OC1COP(=O)(O)OP(=O)(O)OP(=O)(O)O (stereo not drawn) [3′-Ac-dTTP, 3′-O-acetyl-dTTP]",0 µM,5 µM,18 µM,,,not a substrate,not as good as with natural dTTP,,not substrates,6%
Cc1cn([C@H]2C[C@H](OC3CCCO3)[C@@H](COP(=O)(O)OP(=O)(O)OP(=O)(O)O)O2)c(=O)[nH]c1=O (stereo partly drawn) [3′-THF-dTTP],7 µM,39 µM,57 µM,,became substrates for enzyme,not substrates,,,not substrates,
